23 molecules from patent publication US10172832B2, “Amide derivatives of N-urea substituted amino acids as formyl peptide receptor like-1 (FPRL-1) receptor modulators” (Allergan, Inc., priority 2011, dated 2019) can be followed below.

This test concerns the target T1, FPRL-1 (Homo sapiens, UniProt P25090).
T1 construct: expressed in transfected cells
T1 sequence (P25090 1-351): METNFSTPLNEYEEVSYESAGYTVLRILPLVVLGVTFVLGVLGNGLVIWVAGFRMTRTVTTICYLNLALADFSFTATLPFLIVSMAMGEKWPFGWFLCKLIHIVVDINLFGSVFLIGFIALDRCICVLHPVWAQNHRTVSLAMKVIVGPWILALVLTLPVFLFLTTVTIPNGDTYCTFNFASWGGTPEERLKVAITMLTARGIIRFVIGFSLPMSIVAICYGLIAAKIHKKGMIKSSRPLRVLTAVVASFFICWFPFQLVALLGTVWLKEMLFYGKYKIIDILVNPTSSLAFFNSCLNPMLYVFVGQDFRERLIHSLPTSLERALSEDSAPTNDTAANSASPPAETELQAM
In words: compound-induced calcium activity on FLIPR Tetra in CHO-Gα16 cells stably expressing FPRL1. The class given is cell-based. The conditions noted are these: for FPRL-1 Ga16-CHO (Rel. eff.): relative efficacy; for EC50: tested 0.61 to 10,000 nM, read-out: FPRL-1 Ga16-CHO EC50. The procedure:
CHO-Gα16 cells stably expressing FPRL1 were cultured in (F12, 10% FBS, 1% PSA, 400 μg/ml geneticin and 50 μg/ml hygromycin) and HEK-Gqi5 cells stable expressing FPR1 were cultured in (DMEM high glucose, 10% FBS, 1% PSA, 400 μg/ml geneticin and 50 μg/ml hygromycin). In general, the day before the experiment, 18,000 cells/well were plated in a 384-well clear bottom poly-d-lysine coated plate. The following day the screening compound-induced calcium activity was assayed on the FLIPR^Tetra. The drug plates were prepared in 384-well microplates using the EP3 and the MultiPROBE robotic liquid handling systems. Compounds were tested at concentrations ranging from 0.61 to 10,000 nM. Results are expressed as EC50 (nM) and efficacy values.

On to `CC(C)(C)OC(=O)CNC(=O)[C@H](CCS(C)(=O)=O)NC(=O)Nc1ccc(Br)cc1` [Compound 81, tert-butyl {[(2S)-2-{[(4-bromophenyl)carbamoyl]amino}-4-(methylsulfonyl)butanoyl]amino}acetate], for which the “FPRL-1 Ga16-CHO (Rel. eff.)” value is given as “(0.97)” and the concentration for a half-maximal effect (EC50) was determined as 1240 nM.

For the molecule `O=C(O)CCNC(=O)[C@H](Cc1ccccc1)NC(=O)Nc1ccc(Br)cc1` [Compound 2, 3-{[(2S)-2-{[(4-bromophenyl)carbamoyl]amino}-3-phenylpropanoyl]amino}propanoic acid], the “FPRL-1 Ga16-CHO (Rel. eff.)” value was “(0.98)” and the concentration for a half-maximal effect (EC50) came to 18 nM.

Turning to `CC(C)C[C@@H](NC(=O)Nc1ccc(Br)cc1)C(=O)NC(C)(C)C(=O)O` [Compound 87, 2-{[(2R)-2-{[(4-bromophenyl)carbamoyl]amino}-4-methylpentanoyl]amino}-2-methylpropanoic acid], the “FPRL-1 Ga16-CHO (Rel. eff.)” value was “(0.74)” and the EC50 stood at 490 nM.

Consider `CC(C)C[C@H](NC(=O)Nc1ccc(Br)cc1F)C(=O)N[C@@H](C)C(=O)OC(C)(C)C` [Compound 38, tert-butyl(2S)-2-{[(2S)-2-{[(4-bromo-2-fluorophenyl)carbamoyl]amino}-4-methylpentanoyl]amino}propanoate], for which the “FPRL-1 Ga16-CHO (Rel. eff.)” value is “(1.00)” and the EC50 came out at 174 nM.

Turning to `CSc1ccc(NC(=O)N[C@@H](CC(C)C)C(=O)NCC(=O)O)cc1` [Compound 70, {[(2S)-4-methyl-2-({[4-(methylsulfanyl)phenyl]carbamoyl}amino)pentanoyl]amino}acetic acid], the “FPRL-1 Ga16-CHO (Rel. eff.)” value is reported as “(1.05)” and the half-maximal effective concentration (EC50) came to 2.95 nM.

For the molecule `CC(C)C[C@H](NC(=O)Nc1ccc([S+](C)[O-])cc1)C(=O)NCC(=O)O` (stereo partly drawn) [Compound 77, {[(2S)-4-methyl-2-({[4-(methylsulfinyl)phenyl]carbamoyl}amino)pentanoyl]amino}acetic acid], the “FPRL-1 Ga16-CHO (Rel. eff.)” value was “(1.21)” and the EC50 was found to be 358 nM.

Consider `CSc1ccc(NC(=O)N[C@@H](CC(C)C)C(=O)NCC(=O)OC(C)(C)C)cc1` [Compound 68, tert-butyl {[(2S)-4-methyl-2-({[4-(methylsulfanyl)phenyl]carbamoyl}amino)pentanoyl]amino}acetate], for which the “FPRL-1 Ga16-CHO (Rel. eff.)” value is “(0.98)” and the concentration giving a half-maximal response (EC50) was 116 nM.

Turning to `CC(C)CC(C)(NC(=O)Nc1ccc(Br)cc1)C(=O)NCC(=O)O` (centres unmarked) [Compound 56, {[2-{[(4-bromophenyl)carbamoyl]amino}-2,4-dimethylpentanoyl]amino}acetic acid], the “FPRL-1 Ga16-CHO (Rel. eff.)” value was “(0.98)” and the 50% effective concentration (EC50) was 22 nM.

`CC(C)C[C@H](NC(=O)Nc1ccc(Br)cc1)C(=O)NCC(C)(C)O` [Compound 47, (2S)-2-{[(4-bromophenyl)carbamoyl]amino}-N-(2-hydroxy-2-methylpropyl)-4-methylpentanamide]: the EC50 was determined as 2.1 nM.

With `CC(C)(NC(=O)Nc1ccc(Br)cc1)C(=O)NCC(=O)O` [Compound 60, {[2-{[(4-bromophenyl)carbamoyl]amino}-2-methylpropanoyl]amino}acetic acid], the “FPRL-1 Ga16-CHO (Rel. eff.)” value was “(0.99)” and the half-maximal effective concentration (EC50) turned out to be 480 nM.

`CC(C)C[C@H](NC(=O)Nc1ccc(C(F)(F)F)cc1)C(=O)NCC(=O)O` [Compound 63, {[(2S)-4-methyl-2-({[4-(trifluoromethyl)phenyl]carbamoyl}amino)pentanoyl]amino}acetic acid]: the “FPRL-1 Ga16-CHO (Rel. eff.)” value is given as “(0.99)” and the concentration giving a half-maximal response (EC50) came out at 1.8 nM.

Consider `CC[C@@H](C)[C@@H](NC(=O)Nc1ccc(Br)cc1)C(=O)NCC(=O)O` [Compound 65, {[(2R,3R)-2-{[(4-bromophenyl)carbamoyl]amino}-3-methylpentanoyl]amino}acetic acid], for which the “FPRL-1 Ga16-CHO (Rel. eff.)” value was “(0.45)” and the EC50 was determined as 19300 nM.

In the case of `CC(C)C[C@@H](NC(=O)Nc1ccc(Br)cc1)C(=O)NC(C)(C)C(=O)OC(C)(C)C` [Compound 86, tert-butyl 2-{[(2R)-2-{[(4-bromophenyl)carbamoyl]amino}-4-methylpentanoyl]amino}-2-methylpropanoate], the “FPRL-1 Ga16-CHO (Rel. eff.)” value is listed as “(0.74)” and the half-maximal effective concentration (EC50) was determined as 2730 nM.

In the case of `CC(C)C[C@H](NC(=O)Nc1ccc(Br)cc1F)C(=O)NCCO` [Compound 36, (2S)-2-{[(4-bromo-2-fluorophenyl)carbamoyl]amino}-N-(2-hydroxyethyl)-4-methylpentanamide], the “FPRL-1 Ga16-CHO (Rel. eff.)” value was “(1.05)” and the EC50 is 77 nM.

For `CCC[C@H](NC(=O)Nc1ccc(Br)cc1)C(=O)NCC(=O)OC(C)(C)C` [Compound 18, tert-butyl {[(2S)-2-{[(4-bromophenyl)carbamoyl]amino}-pentanoyl]amino}acetate], the “FPRL-1 Ga16-CHO (Rel. eff.)” value is listed as “(0.95)” and the concentration giving a half-maximal response (EC50) stood at 31 nM.

With `CCC[C@H](NC(=O)Nc1ccc(Br)cc1)C(=O)NCC(C)=O` [(2S)-2-{[(4-bromophenyl)carbamoyl]amino}-N-(2-oxopropyl)pentanamide], the “FPRL-1 Ga16-CHO (Rel. eff.)” value is listed as “(1.05)” and the 50% effective concentration (EC50) was found to be 35 nM.

In the case of `CC(C)C[C@H](NC(=O)Nc1ccc([S+](C)[O-])cc1)C(=O)NCC(=O)OC(C)(C)C` (stereo partly drawn) [Compound 75, tert-butyl {[(2S)-4-methyl-2-({[4-(methylsulfinyl)phenyl]carbamoyl}amino)pentanoyl]amino}acetate], the “FPRL-1 Ga16-CHO (Rel. eff.)” value was “(0.97)” and the half-maximal effective concentration (EC50) was 668 nM.

With `CC(C)C[C@H](NC(=O)Nc1ccc(Br)cc1F)C(=O)NCC(=O)OC(C)(C)C` [Compound 33, tert-butyl{[(2S)-2-{[(4-bromo-2-fluorophenyl)carbamoyl]amino}-4-methylpentanoyl]amino}acetate], the “FPRL-1 Ga16-CHO (Rel. eff.)” value was “(1.19)” and the EC50 was 134 nM.

Consider `CC(C)C[C@H](NC(=O)Nc1ccc(Br)cc1)C(=O)N[C@H](C(=O)OC(C)(C)C)c1ccccc1` [Compound 50, tert-butyl(2S)-{[(2S)-2-{[(4-bromophenyl)carbamoyl]amino}-4-methylpentanoyl]amino}(phenyl)ethanoate], for which the “FPRL-1 Ga16-CHO (Rel. eff.)” value is “(1.02)” and the EC50 is 122 nM.

For the molecule `CC(C)C[C@H](NC(=O)Nc1ccc(Br)cc1)C(=O)NCC(O)CO` (stereo partly drawn) [Compound 47, (2S)-2-{[(4-bromophenyl)carbamoyl]amino}-N-(2,3-dihydroxypropyl)-4-methylpentanamide], the EC50 stood at 5.1 nM.

As for `CCC(CC)(NC(=O)Nc1ccc(Br)cc1)C(=O)NCC(=O)OC(C)(C)C` [Compound 57, tert-butyl {[2-{[(4-bromophenyl)carbamoyl]amino}-2-ethylbutanoyl]amino}acetate], the “FPRL-1 Ga16-CHO (Rel. eff.)” value is given as “(1.03)” and the 50% effective concentration (EC50) amounted to 31 nM.

Regarding `CC[C@H](C)[C@H](NC(=O)Nc1ccc(Br)cc1F)C(=O)NCC(=O)O` [Compound 3, {[(2S,3S)-2-{[(4-bromo-2-fluorophenyl)carbamoyl]amino}-3-methylpentanoyl]amino}acetic acid], the “FPRL-1 Ga16-CHO (Rel. eff.)” value is on record as “(0.95)” and the EC50 was 5.5 nM.

Take `CC(C)C[C@@H](NC(=O)Nc1ccc(Br)cc1F)C(=O)NCC(=O)O` [{[(2R)-2-{[(4-bromo-2-fluorophenyl)carbamoyl]amino}-4-methylpentanoyl]amino}acetic acid]: the “FPRL-1 Ga16-CHO (Rel. eff.)” value is “(0.87)” and the concentration giving a half-maximal response (EC50) stood at 1490 nM.

One may read the EC50 as the concentration giving half of the maximal effect.
